How the values were obtained:
[1] = target: T1, H1R (Homo sapiens, UniProt P35367); experiment: H1R competition binding ([3H]pyrilamine); details: for H1R % displacement at 10 µM: 10 µM compound, n=2
T1 construct: expressed in transfected cells; host or cells: CHO-H1R cell line (membranes)
Procedure: H1R competition binding experiments were carried out in polypropylene 96-well plates. Each well contained 50 µg of membranes from a CHO-H1R cell line (protein concentration=3860 µg/ml), 4 nM [3H]pyrilamine (20. 1 Ci/mmol, 1 mCi/ml, Perkin Elmer NET594250UC ), and the compound studied. Non-specific binding was determined in the presence of 10 µM triprolidine (T6764, Sigma Aldrich). The reaction mixture (250 µl/well) was incubated at 27 °C for 60 min, after which 200 µL was transferred to GF/B 96 -well plates (Millipore, Madrid, Spain) pretreated with 0. 1% Tween 20 and assay b uffer (Na+ / K+ phosphate buffer pH=7. 4).
The samples were then filtered and washed fou r times with 250 µl wash buffer (Na+/K+ phosphate buffer, pH=7.4), after which 30 µL Universol (MP Biomedicals, Spain) was added […]
and measurements were performed in a microplate beta scintillation counter (Microbeta Trilux, PerkinElmer, Madrid, Spain). Two independent experiments were carried out to calculate Ki values (n=2).
Data were adjusted to non-linear fitting by using Prism V2.1 (GraphPad Inc, Chicago, USA) and Ki values were calculated by using the Cheng-Prusoff equation25. […]
(§1) KB=I C50/(1+([NECA]/EC50 NECA)). […]

[2] = target: T2, Human D2R (Homo sapiens, UniProt P14416); experiment: D2R functional cAMP (HTRF) assay in CHO-D2 #S20 cells; format: cell-based; details: for EC50: cAMP HTRF, CHO-D2 cells, forskolin 10 µM, mean±SEM n=3; for Emax: relative to the maximal effect of dopamine
T2 construct: expressed in transfected cells; host or cells: CHO-D2R #S20 cell line (membranes)
T2 sequence (P14416 whole entry): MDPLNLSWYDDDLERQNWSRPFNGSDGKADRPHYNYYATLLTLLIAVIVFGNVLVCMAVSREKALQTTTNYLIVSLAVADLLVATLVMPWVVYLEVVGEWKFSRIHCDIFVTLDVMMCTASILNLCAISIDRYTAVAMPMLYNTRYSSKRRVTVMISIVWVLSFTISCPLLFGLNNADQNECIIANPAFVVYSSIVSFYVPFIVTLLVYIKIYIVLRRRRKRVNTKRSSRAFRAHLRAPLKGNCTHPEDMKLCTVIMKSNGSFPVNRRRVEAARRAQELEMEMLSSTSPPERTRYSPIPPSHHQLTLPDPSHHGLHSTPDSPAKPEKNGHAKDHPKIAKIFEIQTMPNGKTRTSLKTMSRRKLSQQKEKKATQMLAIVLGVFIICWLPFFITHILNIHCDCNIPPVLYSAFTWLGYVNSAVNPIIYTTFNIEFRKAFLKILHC
Procedure: KB=I C50/(1+([NECA]/EC50 NECA)).
Functional assays for the human D2R were carried out in a CHO-D2 #S20 cell line. 5,000 cells were seed ed in 30 µl of Opti-ME M (Invitrogen 11058) and 500µM IBMX (Sigma 17018) on a 96-well isoplate (PerkinElmer 6005030). The studied compounds wer e then added and incubated for 10 min at 37 °C with gentle stirring (150 rpm). Then, 10 µM […]
forskolin (Sigma 17018) was added and incubated for 5 min at 37 °C with gentle stirring (150 rpm). Reagents (#CISBIO 62AM4PEC) were added and, after incubation for 60 min at rt with gentle stirring (90 rpm) and protected from light, homogeneous time resolved fluorescence (HTRF, λEx: 320 nm; λEm: 620-665 nm) from each well was measured using a Tecan Infinite M1000 Pro. Data were normalized to the maximum effect of dopamine. EC50 and Ema x values were obtained after fitting the d ata to a four -parameter logistic equatio n using Prism V2. 1 (Graph Pad Inc, Chicago, USA) . […]

[3] = target: T3, Human A2AAR (Homo sapiens, UniProt P29274); experiment: A2AAR competition binding ([3H]-ZM241385 displacement); parameters: expressed in transfected cells; host or cells: HeLa-A2AAR cell line (membranes); details: radioligand displacement, mean±SEM of three experiments in duplicate; read-out: A2AAR binding affinity Ki
T3 sequence (P29274 whole entry): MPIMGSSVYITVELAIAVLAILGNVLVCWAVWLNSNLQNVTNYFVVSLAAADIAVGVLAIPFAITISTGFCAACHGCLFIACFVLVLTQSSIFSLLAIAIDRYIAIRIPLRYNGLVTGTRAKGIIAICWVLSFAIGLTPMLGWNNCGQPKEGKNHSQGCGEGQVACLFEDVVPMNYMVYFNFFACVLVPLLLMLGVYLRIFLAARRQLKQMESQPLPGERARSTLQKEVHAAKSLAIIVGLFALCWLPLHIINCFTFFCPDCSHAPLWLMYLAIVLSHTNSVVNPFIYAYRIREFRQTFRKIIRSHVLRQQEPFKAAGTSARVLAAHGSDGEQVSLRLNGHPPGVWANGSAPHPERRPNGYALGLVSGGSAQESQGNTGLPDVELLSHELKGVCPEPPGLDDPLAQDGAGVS
Procedure: Binding assays. Human A2AAR competition binding experiments were carried out in multiscreen GF/C 96-well plates (Millipore, Madrid, Spain) pretreated with binding buffer (50 mM Tris-HCl, 1 mM EDTA, 10 mM MgCl2, 2 U/ml adenosine deaminase, pH=7.4).
Each well contained 5 µg of membranes from a He l a-A2AAR cell line (protein concentration […]
compound studied. Non-specific binding was determined in the presence of 50 µM NE C A (Sigma E2387). The reaction mixture (200 µl/well) was incubated at 25 °C for 30 min, after which it was filtered and washed four times with 250 µl wash buffer (50 mM Tris -HCl, 1 mM EDTA, 10 mM MgCl 2, pH=7. 4) before measuring in a microplate beta scintillation counter (Microbeta Trilux, PerkinElmer, Madrid, Spain). Three independent experiments were carried out to calculate K i values (n=3). […]

[4] = target: T3, Human A2AAR; experiment: A2AAR functional assay, inhibition of NECA-elicited cAMP production in CHO-A2A cells; format: cell-based; parameters: expressed in transfected cells; details: mean±SEM n=3
Procedure: Functional assays. For the human A2AAR, functional experiments measuring cAMP production were carried out in CHO-A2A cell line. The day before the assay, the cells were seeded on a 96-well culture plate (Falcon 353072). The cells were washed with wash buffer (Dulbecco’s modified eagle’s medium nutrient mixture F-12 ham (Sigma D8062), 25 mM Hepes; pH=7.4). Wash buffer was then replaced by incubation buffer (Dulbecco’s modified eagle’s medium nutrient mixture F-12 ham (Sigma D8062), 25 mM Hepes, 20 µM Rolipram, pH=7.4). The studied compounds wer e added and incubated at 37 °C for 15 min. After incubation, NECA (Sigma E2387) was added in several concentrations and incubated at 37 °C for 15 min. After incubation, the amount of cAMP was determined using the cAMP Biotrak Enzymeimmunoassay (EIA) System Kit (GE Healthcare RPN225). Data were adjusted to non-linear fitting by using Prism V2.1 (GraphPad Inc, Chicago USA). K B values were calculated from the IC50 values obtained for each compound by using the formula:
as §1

T1 sequence (P35367 whole entry, species assumed): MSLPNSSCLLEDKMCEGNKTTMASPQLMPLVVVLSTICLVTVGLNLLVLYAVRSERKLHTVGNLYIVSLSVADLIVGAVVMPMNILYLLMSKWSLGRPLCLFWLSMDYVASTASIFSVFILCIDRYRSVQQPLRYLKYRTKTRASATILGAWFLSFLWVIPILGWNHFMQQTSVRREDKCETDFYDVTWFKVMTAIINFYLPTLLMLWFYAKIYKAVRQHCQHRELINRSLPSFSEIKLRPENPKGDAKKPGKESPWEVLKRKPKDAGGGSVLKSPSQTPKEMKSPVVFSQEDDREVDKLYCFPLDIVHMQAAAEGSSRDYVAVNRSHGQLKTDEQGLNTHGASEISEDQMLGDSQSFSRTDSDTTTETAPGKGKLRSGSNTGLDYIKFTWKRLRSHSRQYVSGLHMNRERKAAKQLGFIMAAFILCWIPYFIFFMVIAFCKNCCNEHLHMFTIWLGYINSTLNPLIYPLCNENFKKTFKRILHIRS

| H1R % displacement at 10 µM [1] [%] | EC50 [2] [nM] | Emax [2] [%] | Ki [3] [nM] | Kb [4] [nM] | Ki ([1]; mean±SEM of two experiments in duplicate, read-out: H1R binding affinity Ki) [nM] | SMILES |
| --- | --- | --- | --- | --- | --- | --- |
| 12 ± 3 | 2500 ± 900 | 119 ± 6 | 340 ± 50 |  |  | CCN(CCCCC(=O)Nc1nc2c(Br)cccc2s1)C1Cc2ccccc2C1 [Compound 22] |
|  | 990 ± 380 | 94 ± 3 | 610 ± 90 | 3600 ± 2000 |  | CCCN(CCCCC(=O)Nc1nc2c(OC)cccc2s1)C1Cc2ccccc2C1 [Compound 26] |
| 40 ± 1 | 180 ± 30 | 89 ± 4 | 390 ± 50 | 510 ± 240 |  | CCCN(CCCCC(=O)Nc1nc2c(Br)cccc2s1)C1Cc2ccccc2C1 [Compound 27] |
| 40 ± 3 | 180 ± 40 | 77 ± 5 | 160 ± 30 | 720 ± 250 | > 10000 | CCCN(CCCCC(=O)Nc1nc2c(OC)ccc(OC)c2s1)C1Cc2ccccc2C1 [Compound 30] |
